# What was measured:
# Experiment in all cases: relative viability (nuclei count vs DMSO), 5 days (fraction); higher = more cells survive
# [1] = compound: CC1=NC=CC(=C1)C2=CC=C(C=C2)CC(=O)NC3=CC=C(C=C3)C4=CN=CC=C4 [Wnt-C59] + COc1cccc2cc(-c3nc([C@H]4CC[C@H](C(=O)O)CC4)n4ncnc(N)c34)[nH]c12 [OSI-027] (partner 0.5 µM)
# Summary of the method: (§1)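 Lung cancer cell lines in 1536-well plates were dosed by pin tool the day after seeding, either with one drug alone or with a fixed anchor-drug dose plus five library-drug doses (not always all listed) in √10 steps. After 5 days, cells were fixed and their nuclei stained in one step (final 0.05% Triton X-100, 1% formaldehyde, 1 ug/ml Hoechst), then counted on 4× images. Relative viability is the nuclei count in treated wells divided by that in vehicle wells. Values are medians of duplicate plates.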
# [2] = compound: CS(=O)(=O)CCNCc1ccc(-c2ccc3ncnc(Nc4ccc(OCc5cccc(F)c5)c(Cl)c4)c3c2)o1 [Lapatinib] + CS(=O)(=O)N1CCN(Cc2cc3nc(-c4cccc5[nH]ncc45)nc(N4CCOCC4)c3s2)CC1 [Pictilisib] (partner 1 µM)
# Summary of the method: as §1
# [3] = compound: CS(=O)(=O)CCNCc1ccc(-c2ccc3ncnc(Nc4ccc(OCc5cccc(F)c5)c(Cl)c4)c3c2)o1 [Lapatinib] + C[C@@H](Oc1cc(-c2cnn(C3CCNCC3)c2)cnc1N)c1c(Cl)ccc(F)c1Cl [Crizotinib] (partner 1 µM)
# Summary of the method: as §1
# [4] = compound: CS(=O)(=O)CCNCc1ccc(-c2ccc3ncnc(Nc4ccc(OCc5cccc(F)c5)c(Cl)c4)c3c2)o1 [Lapatinib] + O=C(CCCCCCC(=O)Nc1ccccc1)NO [Vorinostat] (partner 1 µM)
# Summary of the method: as §1
Cell Line,relative viability ([1]; first compound 0.001 µM),relative viability ([1]; first compound 0.01 µM),relative viability ([1]; first compound 0.03162 µM),relative viability ([1]; first compound 0.1 µM),relative viability ([2]; first compound 0.02 µM),relative viability ([2]; first compound 0.06325 µM),relative viability ([2]; first compound 0.2 µM),relative viability ([2]; first compound 0.6325 µM),relative viability ([2]; first compound 2 µM),relative viability ([3]; first compound 0.02 µM),relative viability ([3]; first compound 0.06325 µM),relative viability ([3]; first compound 0.2 µM),relative viability ([3]; first compound 0.6325 µM),relative viability ([3]; first compound 2 µM),relative viability ([4]; first compound 0.02 µM),relative viability ([4]; first compound 0.06325 µM),relative viability ([4]; first compound 0.2 µM),relative viability ([4]; first compound 0.6325 µM),relative viability ([4]; first compound 2 µM)
201T,0.717,0.725,0.761,0.627,0.603,0.656,0.675,0.659,0.638,0.869,0.996,1.02,0.966,0.977,0.48,0.78,0.89,0.938,0.854
A549,–,–,–,–,0.477,0.401,0.468,0.456,0.506,0.735,0.675,0.73,0.674,0.616,–,–,–,–,–
A-427,0.479,0.457,0.478,0.503,–,0.602,0.854,0.765,0.665,–,0.804,0.945,0.936,0.77,0.839,0.841,0.862,0.833,0.845
ABC-1,0.441,0.597,0.435,0.389,–,0.655,1.09,0.93,0.696,–,0.928,1.32,1.22,0.967,0.929,1.02,–,1,1.18
BEN,0.256,0.309,0.306,0.305,0.412,0.577,0.53,0.519,0.505,0.826,0.672,1.06,0.828,0.747,0.506,0.587,0.586,0.559,0.51
CAL-12T,0.871,0.611,0.856,0.654,–,0.415,0.31,0.528,0.351,0.593,0.59,0.575,0.57,0.326,0.655,0.624,0.755,0.71,0.424
COR-L23,0.763,0.701,0.954,0.735,0.681,0.583,0.984,0.92,0.733,0.71,0.676,0.697,0.602,0.581,0.422,0.522,0.558,0.553,0.393
COR-L 105,0.916,0.696,0.635,0.632,0.33,0.329,0.35,0.419,0.307,0.727,0.635,0.639,0.58,0.279,0.773,0.825,0.779,0.42,0.589
Calu-6,–,–,–,–,0.865,0.838,0.958,1.08,0.978,0.846,0.801,0.909,0.763,0.753,–,–,–,–,–
ChaGo-K-1,0.512,0.569,0.525,0.563,–,0.861,0.598,0.599,0.32,–,1.07,1.19,1.09,1.09,0.53,0.731,0.747,0.78,0.545
EBC-1,–,–,–,–,0.467,0.368,0.364,0.386,0.256,0.181,0.179,0.178,0.174,0.18,–,–,–,–,–
EKVX,0.728,0.574,0.648,0.565,0.41,0.322,0.376,0.345,0.177,0.868,0.68,0.89,0.647,0.214,–,0.476,0.48,0.426,0.26
EMC-BAC-2,0.377,0.36,0.366,0.387,0.355,0.433,0.504,0.581,0.493,0.729,0.635,0.788,0.661,0.74,–,0.336,–,0.531,0.522
EPLC-272H,0.345,0.231,0.332,0.236,–,0.207,0.386,0.381,0.293,–,0.722,0.831,0.79,0.639,0.636,0.328,0.457,0.583,0.391
H3255,0.683,0.58,0.685,0.545,0.452,0.403,0.397,0.284,0.155,0.752,0.687,0.888,0.702,0.311,–,0.697,0.741,0.816,0.293
HARA,0.478,0.337,0.64,0.518,0.418,0.261,0.527,0.33,0.288,1.04,1.28,0.932,0.934,0.447,–,0.452,0.443,0.467,0.427
HCC-15,0.641,0.718,0.647,0.752,–,0.734,0.767,0.725,0.638,–,0.786,0.808,0.835,0.704,–,0.779,0.813,0.858,0.693
HCC-44,0.768,0.671,0.538,0.608,0.606,1.03,0.66,0.654,0.421,0.747,0.743,0.837,0.802,0.675,1.07,1.11,1.16,1.16,0.916
HCC-78,0.389,0.364,0.366,0.411,–,0.265,0.196,0.21,0.208,–,0.236,0.315,0.297,0.229,–,0.318,0.39,0.388,0.375

# Reference: the supplement of paper PMC10307832
